{"source": "ChEMBL document CHEMBL3046245", "about": "“Effects of Ginkgo biloba constituents on fruit-infesting behavior of codling moth (Cydia pomonella) in apples” (2011)", "key": {"[1]": {"system": "Cydia pomonella", "assay": "Inhibition of fruit-infesting behavior of Cydia pomonella (codling moth) neonates infested in apple fruit plugs assessed as feeding deterrence index at 5 mg/mL", "assay_type": "functional"}, "[2]": {"system": "Cydia pomonella", "assay": "Inhibition of fruit-infesting behavior of Cydia pomonella (codling moth) neonates infested in apple fruit plugs assessed as feeding deterrence index at 0.5 mg/mL", "assay_type": "functional"}, "[3]": {"system": "Cydia pomonella", "assay": "Inhibition of fruit-infesting behavior of Cydia pomonella (codling moth) neonates infested in apple fruit plugs assessed as feeding deterrence index at 10 mg/mL", "assay_type": "functional"}, "[4]": {"system": "Cydia pomonella", "assay": "Inhibition of fruit-infesting behavior of Cydia pomonella (codling moth) neonates infested in apple fruit plugs assessed as feeding deterrence index at 1 mg/mL", "assay_type": "functional"}, "[5]": {"system": "Cydia pomonella", "assay": "Inhibition of fruit-infesting behavior of Cydia pomonella (codling moth) neonates infested in apple fruit plugs assessed as feeding deterrence index at 0.1 mg/mL", "assay_type": "functional"}, "[6]": {"system": "Cydia pomonella", "assay": "Inhibition of fruit-infesting behavior of Cydia pomonella (codling moth) neonates infested in apple fruit plugs assessed as feeding deterrence index at 0.001 mg/mL", "assay_type": "functional"}, "[7]": {"system": "Cydia pomonella", "assay": "Inhibition of fruit-infesting behavior of Cydia pomonella (codling moth) neonates infested in apple fruit plugs assessed as feeding deterrence index at 0.01 mg/mL", "assay_type": "functional"}, "[8]": {"system": "Cydia pomonella", "assay": "Inhibition of fruit-infesting behavior of Cydia pomonella (codling moth) neonates infested in apple fruit plugs assessed as feeding deterrence index at 2 mg/mL", "assay_type": "functional"}, "[9]": {"system": "Cydia pomonella", "assay": "Inhibition of fruit-infesting behavior of Cydia pomonella (codling moth) neonates infested in apple fruit plugs assessed as feeding deterrence index at 0.2 mg/mL", "assay_type": "functional"}, "[10]": {"system": "Cydia pomonella", "assay": "Inhibition of fruit-infesting behavior of Cydia pomonella (codling moth) neonates infested in apple fruit plugs assessed as feeding deterrence index at 3 mg/mL", "assay_type": "functional"}, "[11]": {"system": "Cydia pomonella", "assay": "Inhibition of fruit-infesting behavior of Cydia pomonella (codling moth) neonates infested in apple fruit plugs assessed as feeding deterrence index at 30 mg/mL", "assay_type": "functional, organism-based"}, "[12]": {"system": "Cydia pomonella", "assay": "Inhibition of fruit-infesting behavior of Cydia pomonella (codling moth) neonates infested in apple fruit plugs assessed as feeding deterrence index at 60 mg/mL", "assay_type": "functional, organism-based"}}, "note": "Calls of active or inactive are those of the source. The rule behind the calls is not given here."}
{"smiles": "CCCCCCCCCCCCCc1cccc(O)c1C(=O)O", "note": "[GINKGOLIC ACID 13:0]", "values": [{"measurement": "FDI", "setting": "[1]", "value": 0, "unit": "%"}, {"measurement": "FDI", "setting": "[2]", "value": 23.5, "unit": "%"}, {"measurement": "FDI", "setting": "[3]", "value": 42.1, "unit": "%"}, {"measurement": "FDI", "setting": "[4]", "value": 26.1, "unit": "%"}]}
{"smiles": "CC(C)(C)[C@]1(O)CC2OC(=O)CC23C(=O)OC2OC(=O)[C@H](O)C231", "note": "(some centres undefined) [BILOBALIDE]", "values": [{"measurement": "FDI", "setting": "[5]", "value": 56.5, "unit": "%"}, {"measurement": "FDI", "setting": "[6]", "value": 0, "unit": "%"}, {"measurement": "FDI", "setting": "[7]", "value": 23.5, "unit": "%"}, {"measurement": "FDI", "setting": "[3]", "value": 75, "unit": "%"}, {"measurement": "FDI", "setting": "[4]", "value": 50, "unit": "%"}]}
{"smiles": "C[C@@H]1C(=O)O[C@H]2[C@H](O)[C@@]34[C@H]5C[C@@H](C(C)(C)C)[C@]36[C@@H](OC(=O)[C@@H]6O)O[C@@]4(C(=O)O5)[C@@]12O", "note": "[GINKOLIDE B]", "values": [{"measurement": "FDI", "setting": "[5]", "value": 12.5, "unit": "%"}, {"measurement": "FDI", "setting": "[3]", "value": 76, "unit": "%"}, {"measurement": "FDI", "setting": "[4]", "value": 26.1, "unit": "%"}]}
{"smiles": "CCCCCC/C=C\\CCCCCCCc1cccc(O)c1C(=O)O", "note": "[GINGKOLIC ACID]", "values": [{"measurement": "FDI", "setting": "[1]", "value": 50, "unit": "%"}, {"measurement": "FDI", "setting": "[2]", "value": 18.8, "unit": "%"}, {"measurement": "FDI", "setting": "[3]", "value": 63.2, "unit": "%"}, {"measurement": "FDI", "setting": "[4]", "value": 41.7, "unit": "%"}]}
{"smiles": "CCCCCCCCCCCCCCCc1cccc(O)c1C(=O)O", "note": "[ANACARDIC ACID]", "values": [{"measurement": "FDI", "setting": "[1]", "value": 81.8, "unit": "%"}, {"measurement": "FDI", "setting": "[2]", "value": 26.7, "unit": "%"}, {"measurement": "FDI", "setting": "[4]", "value": 91.7, "unit": "%"}, {"measurement": "FDI", "setting": "[8]", "value": 73.7, "unit": "%"}, {"measurement": "FDI", "setting": "[9]", "value": 25, "unit": "%"}]}
{"smiles": "C[C@@H]1C(=O)O[C@H]2[C@H](O)[C@@]34O[C@@H]5OC(=O)[C@H](O)[C@@]56[C@H](C(C)(C)C)[C@H](O)C(OC3=O)[C@]64[C@@]12O", "note": "(some centres undefined) [GINKGOLIDE C]", "values": [{"measurement": "FDI", "setting": "[5]", "value": 11.8, "unit": "%"}, {"measurement": "FDI", "setting": "[3]", "value": 10, "unit": "%"}, {"measurement": "FDI", "setting": "[4]", "value": 20, "unit": "%"}]}
{"smiles": "COc1cc(-c2oc3cc(O)cc(O)c3c(=O)c2O)ccc1O", "note": "[ISORHAMNETIN]", "values": [{"measurement": "FDI", "setting": "[5]", "value": 10.3, "unit": "%"}, {"measurement": "FDI", "setting": "[7]", "value": 21.7, "unit": "%"}, {"measurement": "FDI", "setting": "[10]", "value": 32.1, "unit": "%"}, {"measurement": "FDI", "setting": "[4]", "value": "inactive"}]}
{"smiles": "C[C@@H]1C(=O)O[C@H]2C[C@@]34[C@H]5C[C@@H](C(C)(C)C)[C@]36[C@@H](OC(=O)[C@@H]6O)O[C@@]4(C(=O)O5)[C@]21O", "note": "[GINKGOLIDE A]", "values": [{"measurement": "FDI", "setting": "[5]", "value": 7.69, "unit": "%"}, {"measurement": "FDI", "setting": "[3]", "value": 38.5, "unit": "%"}, {"measurement": "FDI", "setting": "[4]", "value": 40.4, "unit": "%"}]}
{"smiles": "CCCCCC/C=C\\CCCCCCCCCc1cccc(O)c1C(=O)O", "note": "[GINKGOLIC ACID 17:1]", "values": [{"measurement": "FDI", "setting": "[1]", "value": 54.5, "unit": "%"}, {"measurement": "FDI", "setting": "[2]", "value": 37.5, "unit": "%"}, {"measurement": "FDI", "setting": "[3]", "value": 60, "unit": "%"}, {"measurement": "FDI", "setting": "[4]", "value": 5.3, "unit": "%"}]}
{"smiles": "O=c1c(O)c(-c2ccc(O)c(O)c2)oc2cc(O)cc(O)c12", "values": [{"measurement": "FDI", "setting": "[11]", "value": "inactive"}, {"measurement": "FDI", "setting": "[5]", "value": "inactive"}, {"measurement": "FDI", "setting": "[3]", "value": "inactive"}, {"measurement": "FDI", "setting": "[4]", "value": "inactive"}]}
{"smiles": "O=c1c(O)c(-c2ccc(O)cc2)oc2cc(O)cc(O)c12", "note": "[KAEMPFEROL]", "values": [{"measurement": "FDI", "setting": "[11]", "value": "inactive"}, {"measurement": "FDI", "setting": "[5]", "value": "inactive"}, {"measurement": "FDI", "setting": "[3]", "value": "inactive"}, {"measurement": "FDI", "setting": "[4]", "value": 25, "unit": "%"}, {"measurement": "FDI", "setting": "[12]", "value": "inactive"}]}
